Literature values as cited in patent publication US20020111657A1, “Method of controlling body temperature while reducing shivering” (priority 2001, published 2002).

Test system: shivering threshold
Conditions: patients at normal temperature warmed until sweating then cooled until shivering; Talke, et al., Anesthesiology 87(4):835-841, 1997

SMILES	effect on shivering threshold
Clc1cccc(Cl)c1N=C1NCCN1 [clonidine]	able to lower the shivering threshold
Cc1cccc([C@H](C)c2cnc[nH]2)c1C [dexmedetomidine]	able to lower the shivering threshold
